# Source: ChEMBL document CHEMBL4311943, “3-[(1S,2S,3R)-2,3-Difluoro-1-hydroxy-7-methylsulfonylindan-4-yl]oxy-5-fluorobenzonitrile (PT2977), a Hypoxia-Inducible Factor 2α (HIF-2α) Inhibitor for the Treatment of Clear Cell Renal Cell Carcinoma” (J Med Chem, 2019)
# Active and inactive are the calls of the source. The calls are words filed in the database; no cut-off is given here.
# How the values were obtained:
# Homo sapiens = species on record: Homo sapiens; assay: Activity at human Proteinase activated receptor at 10 uM
# [1] = Volume of distribution at steady state in CD-1 mouse at 3 mg/kg, iv by UPLC-MS analysis; format: ADME, organism-based; settings: in vivo, read-out: Vdss
# [2] = Cmax in patient with advanced solid tumor at 160 mg, po administered once daily measured on day 15; format: ADME, organism-based; parameters: dose 160 mg, route oral; settings: human, in vivo
# [3] = target: Parathyroid hormone/parathyroid hormone-related peptide receptor (Homo sapiens) (UniProt Q03431); assay: Activity at human PTH1 receptor at 10 uM
# [4] = target: Platelet-activating factor receptor (Homo sapiens) (UniProt P25105); assay: Activity at human PAF receptor at 10 uM
# Cytochrome P450 3A4 = Cytochrome P450 3A4 (Homo sapiens, UniProt P08684); assay: Inhibition of CYP3A4 in human liver microsomes up to 50 uM using testosterone as substrate measured after 10 mins in presence of NADPH by LC-MS/MS analysis; format: ADME
# [5] = target: Mu-type opioid receptor (Homo sapiens) (UniProt P35372); assay: Activity at human mu opioid receptor at 10 uM
# Sequence of Mu-type opioid receptor (Homo sapiens) (P35372 whole entry): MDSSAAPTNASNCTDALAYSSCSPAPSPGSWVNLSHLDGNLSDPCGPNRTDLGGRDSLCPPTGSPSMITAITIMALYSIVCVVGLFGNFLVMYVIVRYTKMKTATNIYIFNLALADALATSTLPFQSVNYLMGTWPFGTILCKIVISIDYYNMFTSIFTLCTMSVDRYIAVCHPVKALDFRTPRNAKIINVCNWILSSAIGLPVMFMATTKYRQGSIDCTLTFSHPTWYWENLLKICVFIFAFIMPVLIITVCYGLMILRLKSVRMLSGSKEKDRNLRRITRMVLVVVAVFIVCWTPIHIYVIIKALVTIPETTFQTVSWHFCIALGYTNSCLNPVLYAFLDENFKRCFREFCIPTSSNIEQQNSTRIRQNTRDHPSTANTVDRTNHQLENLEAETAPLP
# [6] = target: Type-1 angiotensin II receptor (Homo sapiens) (UniProt P30556); assay: Activity at human AT1 receptor at 10 uM
# Sequence of Type-1 angiotensin II receptor (Homo sapiens) (P30556 whole entry): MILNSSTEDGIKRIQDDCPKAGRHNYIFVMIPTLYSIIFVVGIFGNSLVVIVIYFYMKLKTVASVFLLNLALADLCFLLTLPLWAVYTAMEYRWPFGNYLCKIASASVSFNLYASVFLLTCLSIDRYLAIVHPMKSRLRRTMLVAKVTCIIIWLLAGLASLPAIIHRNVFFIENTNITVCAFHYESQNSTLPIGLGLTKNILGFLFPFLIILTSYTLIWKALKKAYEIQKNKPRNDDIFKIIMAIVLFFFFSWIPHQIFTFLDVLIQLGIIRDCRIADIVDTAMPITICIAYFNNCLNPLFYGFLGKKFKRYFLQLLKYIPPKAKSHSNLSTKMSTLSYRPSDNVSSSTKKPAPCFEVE
# [7] = target: Muscarinic acetylcholine receptor M1 (Homo sapiens) (UniProt P11229); assay: Activity at human M1 receptor at 10 uM
# [8] = target: Mitogen-activated protein kinase 14 (Homo sapiens) (UniProt Q16539); assay: Activity at human SAPK2a at 10 uM
# [9] = target: Delta-type opioid receptor (Homo sapiens) (UniProt P41143); assay: Activity at human delta opioid receptor at 10 uM
# [10] = target: Alpha-1D adrenergic receptor (Homo sapiens) (UniProt P25100); assay: Activity at human alpha1D receptor at 10 uM
# Sequence of Alpha-1D adrenergic receptor (Homo sapiens) (P25100 whole entry): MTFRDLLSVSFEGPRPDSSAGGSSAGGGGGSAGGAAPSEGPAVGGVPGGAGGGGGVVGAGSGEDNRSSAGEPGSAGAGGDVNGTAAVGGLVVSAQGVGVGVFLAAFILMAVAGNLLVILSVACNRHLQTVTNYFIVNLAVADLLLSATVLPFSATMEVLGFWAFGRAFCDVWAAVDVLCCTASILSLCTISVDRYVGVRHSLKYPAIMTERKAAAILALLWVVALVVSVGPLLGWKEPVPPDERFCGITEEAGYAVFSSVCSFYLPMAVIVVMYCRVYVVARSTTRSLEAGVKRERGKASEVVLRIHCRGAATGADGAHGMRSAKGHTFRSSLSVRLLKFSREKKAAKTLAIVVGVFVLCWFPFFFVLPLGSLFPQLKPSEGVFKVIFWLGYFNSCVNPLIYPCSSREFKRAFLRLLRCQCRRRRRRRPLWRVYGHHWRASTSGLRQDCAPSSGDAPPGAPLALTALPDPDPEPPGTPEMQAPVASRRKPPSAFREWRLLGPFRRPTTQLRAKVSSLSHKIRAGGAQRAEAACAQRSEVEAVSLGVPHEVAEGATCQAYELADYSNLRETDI
# [11] = target: Alpha-1A adrenergic receptor (Homo sapiens) (UniProt P35348); assay: Activity at human alpha1A receptor at 10 uM
# Sequence of Alpha-1A adrenergic receptor (Homo sapiens) (P35348 whole entry): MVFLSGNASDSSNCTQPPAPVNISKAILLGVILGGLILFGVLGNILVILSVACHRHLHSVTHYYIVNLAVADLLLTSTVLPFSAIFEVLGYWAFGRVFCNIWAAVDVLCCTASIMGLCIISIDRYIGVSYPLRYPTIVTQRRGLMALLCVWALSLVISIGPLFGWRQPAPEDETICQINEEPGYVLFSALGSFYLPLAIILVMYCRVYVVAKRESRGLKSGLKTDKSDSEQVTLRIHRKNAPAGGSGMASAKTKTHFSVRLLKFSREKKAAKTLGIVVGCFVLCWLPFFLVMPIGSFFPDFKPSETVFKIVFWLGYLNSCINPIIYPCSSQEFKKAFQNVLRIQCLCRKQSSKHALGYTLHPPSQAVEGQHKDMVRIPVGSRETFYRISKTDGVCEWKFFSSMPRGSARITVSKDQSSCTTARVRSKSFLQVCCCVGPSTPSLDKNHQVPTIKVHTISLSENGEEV
# [12] = target: Protein kinase C alpha type (Homo sapiens) (UniProt P17252); assay: Activity at human PKCalpha at 10 uM
# Cytochrome P450 2C9 = Cytochrome P450 2C9 (Homo sapiens, UniProt P11712); assay: Inhibition of CYP2C9 in human liver microsomes up to 50 uM using diclofenac as substrate measured after 10 mins in presence of NADPH by LC-MS/MS analysis; format: ADME
# Sequence of Cytochrome P450 2C9 (P11712 whole entry): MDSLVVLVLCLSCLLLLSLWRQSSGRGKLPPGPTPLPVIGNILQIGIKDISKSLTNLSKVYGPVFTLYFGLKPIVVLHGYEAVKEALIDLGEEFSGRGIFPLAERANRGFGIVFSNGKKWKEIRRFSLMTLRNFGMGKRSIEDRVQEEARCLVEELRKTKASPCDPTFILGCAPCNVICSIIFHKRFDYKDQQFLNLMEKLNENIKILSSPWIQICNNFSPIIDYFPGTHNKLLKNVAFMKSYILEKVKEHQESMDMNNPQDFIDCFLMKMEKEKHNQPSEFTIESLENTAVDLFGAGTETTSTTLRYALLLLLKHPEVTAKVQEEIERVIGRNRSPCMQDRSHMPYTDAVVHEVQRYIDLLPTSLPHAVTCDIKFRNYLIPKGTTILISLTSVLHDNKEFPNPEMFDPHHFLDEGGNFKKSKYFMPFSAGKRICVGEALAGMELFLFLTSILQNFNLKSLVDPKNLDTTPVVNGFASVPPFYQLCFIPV
# [13] = Clearance in monkey at 1 mg/kg, iv by UPLC-MS analysis; format: ADME, organism-based, Macaca mulatta; settings: rhesus monkey, in vivo
# [14] = target: D(1A) dopamine receptor (Homo sapiens) (UniProt P21728); assay: Activity at human D1 receptor at 10 uM
# [15] = Clearance in Beagle dog at 1 mg/kg, iv by UPLC-MS analysis; format: ADME, organism-based, Canis lupus familiaris; settings: in vivo
# [16] = AUClast in patient with advanced solid tumor at 20 mg, po administered once daily measured on day 15; format: ADME, organism-based; parameters: dose 20 mg, route oral, time 0 - last; settings: human, in vivo
# [17] = target: Ribosomal protein S6 kinase beta-1 (Homo sapiens) (UniProt P23443); assay: Activity at human p70S6K at 10 uM
# [18] = target: T1, Voltage-gated inwardly rectifying potassium channel KCNH2 (Homo sapiens, UniProt Q12809); assay: Activity at human ERG at 10 uM
# T1 sequence (Q12809 whole entry): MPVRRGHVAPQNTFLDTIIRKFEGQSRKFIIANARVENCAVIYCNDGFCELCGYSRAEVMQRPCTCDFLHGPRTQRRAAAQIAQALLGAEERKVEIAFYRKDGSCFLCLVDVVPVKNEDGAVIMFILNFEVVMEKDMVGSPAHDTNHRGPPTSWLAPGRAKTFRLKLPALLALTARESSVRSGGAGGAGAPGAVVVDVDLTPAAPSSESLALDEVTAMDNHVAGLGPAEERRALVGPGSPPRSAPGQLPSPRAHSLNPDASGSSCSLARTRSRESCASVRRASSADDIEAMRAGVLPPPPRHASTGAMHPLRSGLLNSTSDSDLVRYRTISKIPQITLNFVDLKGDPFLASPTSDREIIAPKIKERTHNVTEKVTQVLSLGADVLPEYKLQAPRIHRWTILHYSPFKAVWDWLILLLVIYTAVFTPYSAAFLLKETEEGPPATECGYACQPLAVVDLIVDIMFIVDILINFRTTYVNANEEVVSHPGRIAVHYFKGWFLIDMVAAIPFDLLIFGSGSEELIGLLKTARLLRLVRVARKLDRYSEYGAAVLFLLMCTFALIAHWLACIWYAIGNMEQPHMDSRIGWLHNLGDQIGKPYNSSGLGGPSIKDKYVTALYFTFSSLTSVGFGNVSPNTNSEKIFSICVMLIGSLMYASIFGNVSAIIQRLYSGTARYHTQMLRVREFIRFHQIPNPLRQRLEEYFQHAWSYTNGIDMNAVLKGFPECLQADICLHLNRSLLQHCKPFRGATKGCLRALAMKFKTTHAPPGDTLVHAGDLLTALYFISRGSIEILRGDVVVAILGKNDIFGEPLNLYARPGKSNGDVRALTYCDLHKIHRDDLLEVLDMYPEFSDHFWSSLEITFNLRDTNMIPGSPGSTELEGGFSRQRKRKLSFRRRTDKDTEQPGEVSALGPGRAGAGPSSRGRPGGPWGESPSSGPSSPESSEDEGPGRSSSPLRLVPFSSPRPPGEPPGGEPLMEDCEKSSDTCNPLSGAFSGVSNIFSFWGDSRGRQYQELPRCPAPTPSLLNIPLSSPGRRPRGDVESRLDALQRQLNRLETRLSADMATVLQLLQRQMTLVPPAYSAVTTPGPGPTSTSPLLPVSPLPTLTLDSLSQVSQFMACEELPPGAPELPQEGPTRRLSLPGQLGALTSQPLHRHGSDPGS
# [19] = Plasma concentration in patient with advanced solid tumor at 20 mg, po administered once daily measured on day 15 after 24 hrs; format: ADME, organism-based; settings: human
# [20] = target: 5-hydroxytryptamine receptor 2A (Homo sapiens) (UniProt P28223); assay: Activity at human 5-HT2A receptor at 10 uM
# [21] = target: Alpha-2A adrenergic receptor (Homo sapiens) (UniProt P08913); assay: Activity at human alpha2A receptor at 10 uM
# Sequence of Alpha-2A adrenergic receptor (Homo sapiens) (P08913 whole entry): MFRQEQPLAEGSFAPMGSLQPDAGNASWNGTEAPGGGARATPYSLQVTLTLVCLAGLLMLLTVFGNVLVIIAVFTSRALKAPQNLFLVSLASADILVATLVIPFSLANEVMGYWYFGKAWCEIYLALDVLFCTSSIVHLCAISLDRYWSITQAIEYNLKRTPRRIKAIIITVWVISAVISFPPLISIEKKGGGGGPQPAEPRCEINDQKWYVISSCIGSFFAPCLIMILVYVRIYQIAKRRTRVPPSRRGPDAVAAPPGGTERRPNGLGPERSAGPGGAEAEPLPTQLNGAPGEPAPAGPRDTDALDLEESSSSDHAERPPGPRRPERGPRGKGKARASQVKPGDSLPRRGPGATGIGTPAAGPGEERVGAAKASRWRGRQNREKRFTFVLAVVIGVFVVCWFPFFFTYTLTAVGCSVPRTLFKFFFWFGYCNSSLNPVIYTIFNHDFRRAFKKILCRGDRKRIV
# [22] = AUClast in patient with advanced solid tumor at 40 mg, po administered once daily measured on day 15; format: ADME, organism-based; parameters: dose 40 mg, time 0 - last, route oral; settings: human, in vivo
# [23] = target: Calcitonin gene-related peptide type 1 receptor (Homo sapiens) (UniProt Q16602); assay: Activity at human CGRP1 at 10 uM
# Cytochrome P450 2B6 = Cytochrome P450 2B6 (Homo sapiens, UniProt P20813); assay: Inhibition of CYP2B6 in human liver microsomes up to 50 uM using bupropion as substrate measured after 10 mins in presence of NADPH by LC-MS/MS analysis; format: ADME
# [24] = target: Serine/threonine-protein kinase D1 (Homo sapiens) (UniProt Q15139); assay: Activity at human PKCmu at 10 uM
# [25] = target: 5-hydroxytryptamine receptor 2B (Homo sapiens) (UniProt P41595); assay: Activity at human 5-HT2B receptor at 10 uM
# [26] = Drug level in plasma of SCID Beige mouse xenografted with human 786-O cells at 0.3 mg/kg, po administered twice daily via gavage for 3 days measured 12 hrs post-last dose; format: ADME, organism-based
# [27] = target: Vasoactive intestinal polypeptide receptor 2 (Homo sapiens) (UniProt P41587); assay: Activity at human VPAC2 at 10 uM
# Sequence of Vasoactive intestinal polypeptide receptor 2 (Homo sapiens) (P41587 whole entry): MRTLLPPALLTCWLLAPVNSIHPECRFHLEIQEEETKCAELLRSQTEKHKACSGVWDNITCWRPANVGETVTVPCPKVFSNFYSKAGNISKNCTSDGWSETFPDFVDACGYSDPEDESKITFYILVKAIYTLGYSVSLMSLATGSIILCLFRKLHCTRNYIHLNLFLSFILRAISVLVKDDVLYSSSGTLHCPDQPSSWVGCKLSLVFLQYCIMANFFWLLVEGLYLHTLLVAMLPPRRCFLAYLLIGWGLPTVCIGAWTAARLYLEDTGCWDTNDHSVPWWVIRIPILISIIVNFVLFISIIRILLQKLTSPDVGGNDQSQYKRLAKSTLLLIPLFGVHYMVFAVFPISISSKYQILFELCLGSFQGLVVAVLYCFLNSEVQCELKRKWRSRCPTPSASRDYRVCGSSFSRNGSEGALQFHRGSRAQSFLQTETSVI
# [28] = target: T1, Voltage-gated inwardly rectifying potassium channel KCNH2; assay: Inhibition of human ERG expressed in mammalian expression system by Q-patch clamp electrophysiology method
# [29] = target: CDK9/cyclin T1 (Homo sapiens) (UniProt O60563+P50750); assay: Activity at human CDK9/cyclinT1 at 10 uM; format: protein-complex assay
# [30] = target: C-C chemokine receptor type 1 (Homo sapiens) (UniProt P32246); assay: Activity at human CCR1 receptor at 10 uM
# [31] = target: Vasoactive intestinal polypeptide receptor 1 (Homo sapiens) (UniProt P32241); assay: Activity at human VPAC1 at 10 uM
# [32] = target: Mitogen-activated protein kinase 1 (Homo sapiens) (UniProt P28482); assay: Activity at human MAPK2 at 10 uM
# Sequence of Mitogen-activated protein kinase 1 (Homo sapiens) (P28482 whole entry): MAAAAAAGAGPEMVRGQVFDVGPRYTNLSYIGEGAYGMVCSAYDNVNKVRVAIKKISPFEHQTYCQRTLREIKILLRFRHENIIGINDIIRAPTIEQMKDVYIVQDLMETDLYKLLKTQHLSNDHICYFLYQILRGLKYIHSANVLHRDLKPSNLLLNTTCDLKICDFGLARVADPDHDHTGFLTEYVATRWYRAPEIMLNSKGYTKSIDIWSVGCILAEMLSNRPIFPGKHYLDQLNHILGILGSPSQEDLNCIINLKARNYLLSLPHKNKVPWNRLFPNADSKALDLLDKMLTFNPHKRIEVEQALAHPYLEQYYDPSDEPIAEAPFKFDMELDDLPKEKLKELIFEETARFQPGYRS
# [33] = Drug level in plasma of SCID Beige mouse xenografted with human 786-O cells at 1 mg/kg, po administered twice daily via gavage for 3 days measured 12 hrs post-last dose; format: ADME, organism-based
# [34] = Drug level in plasma of SCID Beige mouse xenografted with human 786-O cells at 3 mg/kg, po administered twice daily via gavage for 3 days measured 12 hrs post-last dose; format: ADME, organism-based
# [35] = target: Serine/threonine-protein kinase STK11 (Homo sapiens) (UniProt Q15831); assay: Activity at human LKB1 at 10 uM
structure (smiles),measurement,setting,value
CS(=O)(=O)c1ccc(Oc2cc(F)cc(C#N)c2)c2c1[C@H](O)[C@H](F)[C@@H]2F [BELZUTIFAN],Activity,Homo sapiens,inactive
same,Vd,[1],4.9 L/kg
same,Cmax,[2],2000 ng/mL
same,Activity,[3],inactive
same,Activity,[4],inactive
same,inhibition (INH),Cytochrome P450 3A4,Not Active
same,Activity,[5],inactive
same,Activity,[6],inactive
same,Activity,[7],inactive
same,Activity,[8],inactive
same,Activity,[9],inactive
same,Activity,[10],inactive
same,Activity,[11],inactive
same,Activity,[12],inactive
same,inhibition (INH),Cytochrome P450 2C9,Not Active
same,clearance,[13],3.5 mL/min/kg
same,Activity,[14],inactive
same,clearance,[15],1.3 mL/min/kg
same,AUC(0-t),[16],2100 ng·h/mL
same,Activity,[17],inactive
same,Activity,[18],Not Active
same,concentration at 24 h,[19],60 ng/mL
same,Activity,[20],inactive
same,Activity,[21],inactive
same,AUC(0-t),[22],7100 ng·h/mL
same,Activity,[23],inactive
same,inhibition (INH),Cytochrome P450 2B6,Not Active
same,Activity,[24],inactive
same,Activity,[25],inactive
same,concentration at 12 h,[26],< 19 ng/mL
same,Activity,[27],inactive
same,IC50,[28],> 50 µM
same,Activity,[29],inactive
same,Activity,[30],inactive
same,Activity,[31],inactive
same,Activity,[32],inactive
same,concentration at 12 h,[33],27 ng/mL
same,concentration at 12 h,[34],59 ng/mL
same,Activity,[35],inactive
